Drawing on patent US10184115B2, “Mutated cellobiose dehydrogenase with increased substrate specificity” (DIRECTSENS GMBH, priority 2012, dated 2019), this text covers kcat/KM and kcat for one molecule.

What is called kcat/KM is the turnover number divided by the Michaelis constant. As a reminder, the kcat is the maximal rate divided by the concentration of active sites.

For the assay, the target named is T1, Myriococcum thermophilum cellobiose dehydrogenase (CDH, SEQ ID NO: 1) variant W316L (Thermothelomyces myriococcoides, UniProt A9XK88, W316L).
T1 sequence (A9XK88 22-828 W316L): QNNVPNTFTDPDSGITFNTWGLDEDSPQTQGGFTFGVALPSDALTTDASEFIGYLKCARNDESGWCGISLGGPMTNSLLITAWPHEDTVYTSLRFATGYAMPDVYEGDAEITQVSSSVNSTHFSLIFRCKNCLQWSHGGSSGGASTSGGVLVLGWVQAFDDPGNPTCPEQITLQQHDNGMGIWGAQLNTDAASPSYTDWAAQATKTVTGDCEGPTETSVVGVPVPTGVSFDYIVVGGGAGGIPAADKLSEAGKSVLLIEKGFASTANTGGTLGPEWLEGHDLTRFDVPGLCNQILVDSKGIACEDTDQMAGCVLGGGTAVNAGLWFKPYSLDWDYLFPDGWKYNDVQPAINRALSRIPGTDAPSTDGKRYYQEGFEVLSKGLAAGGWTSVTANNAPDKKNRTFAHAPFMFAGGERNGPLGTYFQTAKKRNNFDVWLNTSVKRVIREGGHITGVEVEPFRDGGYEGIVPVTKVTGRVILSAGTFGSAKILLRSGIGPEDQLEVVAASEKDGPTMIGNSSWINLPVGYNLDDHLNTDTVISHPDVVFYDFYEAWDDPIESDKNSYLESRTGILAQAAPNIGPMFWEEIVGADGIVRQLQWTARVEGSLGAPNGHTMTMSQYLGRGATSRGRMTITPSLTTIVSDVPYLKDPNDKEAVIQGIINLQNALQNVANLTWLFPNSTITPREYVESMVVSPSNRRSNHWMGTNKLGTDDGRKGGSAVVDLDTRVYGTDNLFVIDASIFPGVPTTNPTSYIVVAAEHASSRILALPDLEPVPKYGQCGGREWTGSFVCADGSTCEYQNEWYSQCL
The experiment in a line: Steady-state kinetics, DCIP assay: M. thermophilum CDH W316L. In kind it is biochemical. The note with it: apparent, pH 4.5, 30° C. How it is done:
Enzyme activity was assayed at 30° C. using either the DCIP (Karapetyan et al., 2005 Journal of Biotechnology 121: 34-48) or cytochrome c (Canevascini et al., 1991, European Journal of Biochemistry 198: 43-52) as electron acceptor. […] Stock solutions of carbohydrates used for kinetic measurements were prepared in the respective buffer and allowed to stand overnight for mutarotation, while stock solutions of electron acceptors were prepared in water and immediately used. The reaction stoichiometry is 1 for the two-electron acceptor DCIP (1 mole of DCIP reduced per mole of carbohydrate oxidized), but 2 for the one-electron acceptor cytochrome c. Kinetic constants were calculated by fitting the observed data to the Henri-Michaelis-Menten equation or to the adapted model for substrate inhibition using nonlinear least-squares regression and the program SigmaPlot (Systat Software, San Jose, Calif., USA). […]
Recombinant wild-type CDH as well as variants were produced in 1 L baffled flasks. […] Increase in activity was monitored using the DCIP and the cytochrome c enzyme assays. […]
The sample was loaded on a 20 mL PHE Sepharose FF column (HR26/20) equilibrated with 50 mM Na-acetate buffer pH 5.5 containing 20% ammonium sulfate. […] Fractions were tested for CDH activity and pooled according to the highest Reinheitszahl (RZ, calculated from the absorbance ratio 420 nm/280 nm). […]

Molecules are shown by their SMILES.

As to `OC[C@H]1O[C@H](O[C@H]2[C@H](O)[C@@H](O)C(O)O[C@@H]2CO)[C@H](O)[C@@H](O)[C@@H]1O` (some centres unmarked) [Maltose, maltose], the kcat/KM was determined as 2.6 M⁻¹ s⁻¹. Further, the kcat (~ values only estimated by non linear regression) was 0.59 s⁻¹.
